Laboratory results as given in patent US9113629B2, “4-amino-6-(4-substituted-phenyl)-picolinates and 6-amino-2-(4-substituted-phenyl)-pyrimidine-4-carboxylates and their use as herbicides” (DOW AGROSCIENCES LLC, priority 2013, dated 2015).
Read-outs that look alike come from different tables or passages of the source.

Tests used:
[1] = test system: Key Grass and Sedge Weeds as well as Grass Crops; test: Post-emergent Test II herbicidal activity (Table 6); type: in vivo; conditions: post-emergence, 336 h; for pest or weed control at 70 g/ha: application rate 70 g ai/ha; for pest or weed control at 140 g/ha: application rate 140 g ai/ha
How it was run: (§1)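 Injury was rated visually 14 d after treatment on a 0–100% scale against untreated controls. Test compounds, formulated with crop oil concentrate and surfactant and serially diluted down to 1/16× of the top rate, were applied by track sprayer at 187 L/ha onto first- to second-true-leaf seedlings.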

[2] = test system: Key Broadleaf Weed and Crop Species; test: Post-emergent Test II herbicidal activity (Table 5); type: in vivo; conditions: post-emergence, 336 h, post-emergent, 14 days after application; for pest or weed control at 70 g/ha: 70 g ai/ha; for pest or weed control at 140 g/ha: 140 g ai/ha
How it was run: as §1

[3] = Triticum aestivum, TRZSS (wheat), read-out: Visual Growth Reduction (%) 14 Days After Application, TRZSS
[4] = CYPES: yellow nutsedge (Cyperus esculentus), read-out: Visual Growth Reduction (%) 14 Days After Application, CYPES
[5] = DIGSA: crabgrass (Digitaria sanguinalis), read-out: Visual Growth Reduction (%) 14 Days After Application, DIGSA
[6] = ECHCG: barnyardgrass (Echinochloa crus-galli), read-out: Visual Growth Reduction (%) 14 Days After Application, ECHCG
[7] = ORYSA: rice (Oryza sativa), read-out: Visual Growth Reduction (%) 14 Days After Application, ORYSA
[8] = SETFA: giant foxtail (Setaria faberi), read-out: Visual Growth Reduction (%) 14 Days After Application, SETFA
[9] = SORVU: grain sorghum (Sorghum vulgare), read-out: Visual Growth Reduction (%) 14 Days After Application, SORVU
[10] = ZEAMX: maize, corn (Zea mays), read-out: Visual Growth Reduction (%) 14 Days After Application, ZEAMX
[11] = ABUTH: velvetleaf (Abutilon theophrasti), read-out: Visual Growth Reduction (%) 14 Days After Application ABUTH
[12] = AMARE: redroot pigweed (Amaranthus retroflexus), read-out: Visual Growth Reduction (%) 14 Days After Application AMARE
[13] = BRSNN: oilseed-rape, canola (Brassica napus), read-out: Visual Growth Reduction (%) 14 Days After Application BRSNN
[14] = CHEAL: lambsquarters (Chenopodium album), read-out: Visual Growth Reduction (%) 14 Days After Application CHEAL
[15] = EPHHL: wild poinsettia (Euphorbia heterophylla), read-out: Visual Growth Reduction (%) 14 Days After Application EPHHL
[16] = HELAN: sunflower (Helianthus annuus), read-out: Visual Growth Reduction (%) 14 Days After Application HELAN
[17] = VIOTR: wild pansy (Viola tricolor), read-out: Visual Growth Reduction (%) 14 Days After Application VIOTR

In the case of `COC(=O)c1nc(-c2ccc(I)cc2F)cc(N)c1Cl` [Compound 159], the pest or weed control at 70 g/ha [1, 3] is reported as 60 to 74%, the pest or weed control at 140 g/ha [1, 3] is reported as 60 to 74% and the pest or weed control at 70 g/ha [1, 4] is reported as 95 to 100%. It also gave a pest or weed control at 140 g/ha [1, 4] of 95 to 100%, a pest or weed control at 70 g/ha [1, 5] of 85 to 94% and a pest or weed control at 140 g/ha [1, 5] of 85 to 94%. For the same compound, the pest or weed control at 70 g/ha [1, 6] was 85 to 94%, the pest or weed control at 140 g/ha [1, 6] was 95 to 100% and the pest or weed control at 70 g/ha [1, 7] was 0 to 29%. The pest or weed control at 140 g/ha [1, 7] was 0 to 29%, the pest or weed control at 70 g/ha [1, 8] was 75 to 84% and the pest or weed control at 140 g/ha [1, 8] was 95 to 100%. For the same compound, the pest or weed control at 70 g/ha [1, 9] was 95 to 100%, the pest or weed control at 140 g/ha [1, 9] was 95 to 100% and the pest or weed control at 70 g/ha [1, 10] was 60 to 74%. For the same compound, the pest or weed control at 140 g/ha [1, 10] was 75 to 84%, the pest or weed control at 70 g/ha [2, 11] was 95 to 100% and the pest or weed control at 140 g/ha [2, 11] was 95 to 100%. For the same compound, the pest or weed control at 70 g/ha [2, 12] was 95 to 100%, the pest or weed control at 140 g/ha [2, 12] was 95 to 100% and the pest or weed control at 70 g/ha [2, 13] was 85 to 94%. For the same compound, the pest or weed control at 140 g/ha [2, 13] was 85 to 94%, the pest or weed control at 70 g/ha [2, 14] was 95 to 100% and the pest or weed control at 140 g/ha [2, 14] was 95 to 100%. It also gave a pest or weed control at 70 g/ha [2, 15] of 95 to 100%, a pest or weed control at 140 g/ha [2, 15] of 95 to 100% and a pest or weed control at 70 g/ha [2, 16] of 75 to 84%. For the same compound, the pest or weed control at 140 g/ha [2, 16] was 95 to 100%, the pest or weed control at 70 g/ha [2, 17] was 0 to 29% and the pest or weed control at 140 g/ha [2, 17] was 45 to 59%.
With `Cc1c(-c2ccc(C(F)(F)F)c(F)c2)nc(C(=O)O)c(Cl)c1N` [Compound 161, 4-amino-3-chloro-6-(3-fluoro-4-(trifluoromethyl)phenyl)-5-methylpicolinic acid] the pest or weed control at 70 g/ha [1, 3] was 60 to 74%, the pest or weed control at 140 g/ha [1, 3] was 60 to 74% and the pest or weed control at 70 g/ha [1, 4] was 95 to 100%. For the same compound, the pest or weed control at 70 g/ha [1, 5] was 30 to 44%, the pest or weed control at 140 g/ha [1, 5] was 45 to 59% and the pest or weed control at 70 g/ha [1, 6] was 45 to 59%. The pest or weed control at 140 g/ha [1, 6] was 60 to 74%, the pest or weed control at 70 g/ha [1, 7] was 0 to 29% and the pest or weed control at 140 g/ha [1, 7] was 0 to 29%. For the same compound, the pest or weed control at 70 g/ha [1, 8] was 85 to 94%, the pest or weed control at 140 g/ha [1, 8] was 85 to 94% and the pest or weed control at 70 g/ha [1, 9] was 0 to 29%. It also gave a pest or weed control at 140 g/ha [1, 9] of 0 to 29%, a pest or weed control at 70 g/ha [1, 10] of 60 to 74% and a pest or weed control at 140 g/ha [1, 10] of 60 to 74%. It also gave a pest or weed control at 70 g/ha [2, 11] of 75 to 84%, a pest or weed control at 140 g/ha [2, 11] of 85 to 94% and a pest or weed control at 70 g/ha [2, 12] of 45 to 59%. For the same compound, the pest or weed control at 140 g/ha [2, 12] was 95 to 100%, the pest or weed control at 70 g/ha [2, 13] was 95 to 100% and the pest or weed control at 140 g/ha [2, 13] was 95 to 100%. For the same compound, the pest or weed control at 70 g/ha [2, 14] was 95 to 100%, the pest or weed control at 140 g/ha [2, 14] was 95 to 100% and the pest or weed control at 70 g/ha [2, 15] was 0 to 29%. It also gave a pest or weed control at 140 g/ha [2, 15] of 0 to 29%, a pest or weed control at 70 g/ha [2, 16] of 95 to 100% and a pest or weed control at 140 g/ha [2, 16] of 95 to 100%. It also gave a pest or weed control at 70 g/ha [2, 17] of 0 to 29% and a pest or weed control at 140 g/ha [2, 17] of 0 to 29%.
In the case of `COC(=O)c1nc(-c2ccc(Br)c(F)c2)nc(N)c1OC` [Compound 171, Methyl 6-amino-2-(4-bromo-3-fluorophenyl)-5-methoxypyrimidine-4-carboxylate], the pest or weed control at 70 g/ha [1, 3] is reported as 30 to 44%, the pest or weed control at 140 g/ha [1, 3] is reported as 30 to 44% and the pest or weed control at 70 g/ha [1, 4] is reported as 45 to 59%. For the same compound, the pest or weed control at 140 g/ha [1, 4] was 45 to 59%, the pest or weed control at 70 g/ha [1, 5] was 0 to 29% and the pest or weed control at 140 g/ha [1, 5] was 60 to 74%. The pest or weed control at 70 g/ha [1, 6] was 30 to 44%, the pest or weed control at 140 g/ha [1, 6] was 60 to 74% and the pest or weed control at 70 g/ha [1, 7] was 0 to 29%. For the same compound, the pest or weed control at 140 g/ha [1, 7] was 0 to 29%, the pest or weed control at 70 g/ha [1, 8] was 0 to 29% and the pest or weed control at 140 g/ha [1, 8] was 0 to 29%. It also gave a pest or weed control at 70 g/ha [1, 9] of 0 to 29%, a pest or weed control at 140 g/ha [1, 9] of 45 to 59% and a pest or weed control at 70 g/ha [1, 10] of 60 to 74%. The pest or weed control at 140 g/ha [1, 10] was 75 to 84%, the pest or weed control at 70 g/ha [2, 11] was 75 to 84% and the pest or weed control at 140 g/ha [2, 11] was 85 to 94%. It also gave a pest or weed control at 70 g/ha [2, 12] of 85 to 94%, a pest or weed control at 140 g/ha [2, 12] of 95 to 100% and a pest or weed control at 70 g/ha [2, 13] of 85 to 94%. It also gave a pest or weed control at 140 g/ha [2, 13] of 85 to 94%, a pest or weed control at 70 g/ha [2, 14] of 85 to 94% and a pest or weed control at 140 g/ha [2, 14] of 85 to 94%. The pest or weed control at 70 g/ha [2, 15] was 95 to 100%, the pest or weed control at 140 g/ha [2, 15] was 95 to 100% and the pest or weed control at 70 g/ha [2, 16] was 85 to 94%. The pest or weed control at 140 g/ha [2, 16] was 85 to 94%, the pest or weed control at 70 g/ha [2, 17] was 95 to 100% and the pest or weed control at 140 g/ha [2, 17] was 95 to 100%.
`Nc1c(Cl)c(C(=O)O)nc(-c2ccc(I)cc2)c1Cl` [Compound 173] showed a pest or weed control at 70 g/ha [1, 3] of 60 to 74%, a pest or weed control at 140 g/ha [1, 3] of 60 to 74% and a pest or weed control at 70 g/ha [1, 4] of 95 to 100%. The pest or weed control at 140 g/ha [1, 4] was 95 to 100%, the pest or weed control at 70 g/ha [1, 5] was 60 to 74% and the pest or weed control at 140 g/ha [1, 5] was 75 to 84%. It also gave a pest or weed control at 70 g/ha [1, 6] of 75 to 84%, a pest or weed control at 140 g/ha [1, 6] of 75 to 84% and a pest or weed control at 70 g/ha [1, 7] of 0 to 29%. For the same compound, the pest or weed control at 140 g/ha [1, 7] was 0 to 29%, the pest or weed control at 70 g/ha [1, 8] was 75 to 84% and the pest or weed control at 140 g/ha [1, 8] was 85 to 94%. For the same compound, the pest or weed control at 70 g/ha [1, 9] was 75 to 84%, the pest or weed control at 140 g/ha [1, 9] was 85 to 94% and the pest or weed control at 70 g/ha [1, 10] was 60 to 74%. The pest or weed control at 140 g/ha [1, 10] was 75 to 84%, the pest or weed control at 70 g/ha [2, 11] was 60 to 74% and the pest or weed control at 140 g/ha [2, 11] was 85 to 94%. It also gave a pest or weed control at 70 g/ha [2, 12] of 85 to 94%, a pest or weed control at 140 g/ha [2, 12] of 95 to 100% and a pest or weed control at 70 g/ha [2, 13] of 85 to 94%. The pest or weed control at 140 g/ha [2, 13] was 85 to 94%, the pest or weed control at 70 g/ha [2, 14] was 85 to 94% and the pest or weed control at 140 g/ha [2, 14] was 85 to 94%. For the same compound, the pest or weed control at 70 g/ha [2, 15] was 0 to 29%, the pest or weed control at 140 g/ha [2, 15] was 45 to 59% and the pest or weed control at 70 g/ha [2, 16] was 95 to 100%. It also gave a pest or weed control at 140 g/ha [2, 16] of 95 to 100%, a pest or weed control at 70 g/ha [2, 17] of 0 to 29% and a pest or weed control at 140 g/ha [2, 17] of 0 to 29%.
